Three compounds from patent US20090054376A1, “BENZOFURAN DERIVATIVES WITH THERAPEUTIC ACTIVITIES” (Pharmos Corporation, priority 2005, published 2009) can be followed below.

Read-outs that look alike come from different tables or passages of the source.

One may read the mortality as the share of the test organisms that died. A higher mortality goes with fewer survivors.

Assay [1] has as its system visceral pain writhing responses. As to the kind of experiment: Visceral pain, acetic acid induced writhing responses. The assay is classed as in vivo, Male ICR mice. The conditions noted are these: single dose 2 mg/kg i.v., compared to untreated group. (Writhing tests count abdominal constrictions after an irritant is injected.)
Assay [2] relates to carrageenan induced inflammatory pain and paw edema. Nature of the assay: Inflammatory pain and paw edema induced by carrageenan. The assay is classed as in vivo, Male Sprague Dawley rats. The conditions noted are these: for inhibition in vivo at 10 mg/kg: Rattus norvegicus, ip. The essentials: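 Male Sprague Dawley rats (~200 g) received 0.1 ml 2% λ-carrageenan subplantar in the right paw; compounds given i.p. at 3, 10 or 20 mg/kg (some p.o.) immediately after. Thermal (Hargreaves) latency, mechanical threshold, paw thickness and volume measured at 0 and 3 h; values are inter-paw differences ([…], ΔForce), volume as % of vehicle.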

For assay [3], the system named is mechanical allodyna after chronic constriction of the sciatic nerve. As to the kind of experiment: Neuropathic pain, chronic constriction of the sciatic nerve (CCI). Type of assay: in vivo, Male Sprague Dawley rats. Conditions: both 0.25 and 2 mg/kg i.v. The protocol:
The analgesic activity of compounds of the invention was assessed in a chronic constriction induced (CCI) model of neuropathic pain. […] The development of mechanical allodyna was monitored using a Dynamic Plantar Sesthesiomether as described in Example 18. This apparatus is an automated version of the classical von Frey filaments' test.
Pre-surgery baseline values were ascertained as the mean of 2 pre-surgery values. Once the baseline values are established, the animals were surgically prepared by constricting the right sciatic nerve with 4-0 chromic cat gut loose ligatures. On day 11 post-operation, the animals that have developed mechanical allodyna were arbitrarily allocated to the various treatment groups based on the pre-surgery values.
The design was randomized, performed in a masked fashion as to whether drug or vehicle is being given. Male Sprague Dawley rats (average body weight 240 g, Harlan, Israel), were allowed to acclimatize to the behavioral testing equipment prior to testing. On the testing day, the animals, at least six per treatment group, were administered the compounds and controls at a volume dosage of 5 ml/kg. Fifteen minutes later, the mechanical stimulus was applied and the force, measured in grams, causing a withdrawal response for each of the ipsilateral and contralateral hind paws was evaluated.
Results are expressed as mean±SEM for each treatment group and the differences among those groups are analyzed by analysis of variance (ANOVA) followed by post-hoc Tukey's test. A value of p<0.05 is considered to be statistically significant. Thereafter the difference in the force to be applied to the injured paw as compared to the normal paw was calculated. Δforce, expressed in grams, was measured at baseline and 1 and 4.5 hours after treatment.

In the next assay the test system is COX-2. Nature of the assay: Gene expression in LPS activated RAW 264.7 macrophages, COX-2. Conditions: RAW 264.7, 10 μM, LPS 1 μg/ml, RNA 3 hrs after activation, vs vehicle treated activated cells. Type of assay: cell-based, mouse. The protocol:
(§1) RAW 264.7 macrophages, a mouse cell line (ATCC # TIB 71), were grown in Dulbecco's modified Eagle's medium (DMEM) with 4 mM L-glutamine adjusted to contain 1.5 g/L sodium bicarbonate, 4.5 g/L glucose, and 10% heat inactivated fetal bovine serum. Cells were grown in tissue culture flasks and seeded at appropriate density into 6 wells tissue culture plates. Four million Raw cells in half a milliliter were stimulated with 1 μg/ml LPS E. coli 055:B5 (DIFCO Laboratories). The mouse macrophages were pre-treated for one hour with controls or 10 μM of test compounds, and later on activated with LPS. RNA samples were extracted from the cells 3 hrs after activation and gene expression levels were analyzed by real-time RT-PCR. In parallel, supernatants were collected and secretion of inflammatory mediators was analyzed using ELISA techniques according to the instructions of the kit manufacturer.
(§2) Total RNA is prepared using SV total RNA isolation system (Promega). The cells were homogenized in lysis buffer. The lysates were transferred to an RNA isolation column, treated with DNAse, washed and eluted according to kit instructions. RNA concentrations were determined using GeneQuant II (Pharmacia-Amersham). Complementary DNA (cDNA) was synthesized from total RNA using […] II reverse transcriptase (Life Technologies). 2 μg of total RNA were combined with an oligo (dT)15 primer, 0.5 mM dNTP mix, 8 units of reverse transcriptase and other reaction components up to a final volume of 20 μl, according to the kit instructions. The reaction mixture was incubated at 42° C. for 45 min and inactivated at 70° C. for 15 minutes. Quantitative real-time RT-PCR included 1 μl of the cDNA, 300 nM of the appropriate forward and reverse primers (according to the gene monitored) and 7.5 μl of the reaction mix containing buffer, nucleotides, Taq polymerase and SYBER green (SYBER Green master mix, Applied Biosystems), in a total reaction volume of 15 μl. Gene amplification was obtained using the GeneAmp 5700 sequence detection system (Applied Biosystems). Amplification included one stage of 10 minutes at 95° C. followed by 40 cycles of a 2-steps loop: 20 seconds at 95° C., and 1 minute at 60° C. During each annealing step, the amount of the amplified product was measured by the fluorescence of the double strand DNA binding dye, SYBER Green. The cycle of threshold (CT), representing the PCR cycle at which an increase in fluorescence above a baseline signal can be first detected, was determined for each product. A delay of one PCR cycle in the CT is translated into a two-fold decrease in starting template molecules and vice versa. The changes in the CT of the specific gene product were normalized to the changes in the CT of housekeeping cyclophilin or GAPDH as reference genes. Results were expressed as fold increase of gene expression in treated or untreated activated cells above the resting cells, after normalization to cyclophilin or GAPDH. Cells were also tested for viability to confirm that any effect on gene expression was indeed due to modulation of transcription of a specific target and not to cytoxicity.
(§3) Results were further expressed as percent inhibition of gene expression in compound treated activated cells over vehicle “treated” activated cells. Since the modulation of IL-10 and TNF-α gene expression by the compounds of the invention is relatively minor, it is not reported. […] Inhibition above 50% was considered significant.

The next assay deals with IL-1β. Nature of the assay: Gene expression in LPS activated RAW 264.7 macrophages, IL-1β. Type of assay: cell-based, mouse. The conditions noted are these: RAW 264.7, 10 μM, LPS 1 μg/ml, RNA 3 hrs after activation, vs vehicle treated activated cells. The protocol: as §1, §2, §3
The subject of a further assay is iNOS. As to the kind of experiment: Gene expression in LPS activated RAW 264.7 macrophages, iNOS. Type of assay: cell-based, mouse. The conditions noted are these: RAW 264.7, 10 μM, LPS 1 μg/ml, RNA 3 hrs after activation, vs vehicle treated activated cells. The protocol: as §1, §2, §3
The subject of the next assay is MCP-1. Nature of the assay: Gene expression in LPS activated RAW 264.7 macrophages, MCP-1. The assay is classed as cell-based, mouse. The conditions noted are these: RAW 264.7, 10 μM, LPS 1 μg/ml, RNA 3 hrs after activation, vs vehicle treated activated cells. The protocol: as §1, §2, §3
Assay [4] relates to TNBS induced inflammatory bowel disease. Nature of the assay: TNBS induced inflammatory bowel disease. Type of assay: in vivo, Female Balb/C mice. Conditions: 20 mg/kg i.p. daily. The protocol: Female Balb/C mice (average body weight 20 g, Harlan, Israel) were lightly sedated and challenged rectally, by instillation with 70 μl of 2.5% TNBS (Sigma) dissolved in 50% ethanol, to induce intestinal inflammation and colitis. Animals were weighted before the beginning of the study and treatment was administered i.p. on a daily basis for six days at 20 mg/kg and volume dosage of 5 ml/kg. During the study period of up to 7 days, the following parameters were daily monitored and recorded: body weight, presence of blood in the stool and stool consistency. These findings are scored according to Table 6 [Murthy S.N. et al., Dig. Dis. Sci. 38:1722-34, 1993].
On the last day of the study, animals were euthanized. Abdomen was open and the colon was sectioned at the level of the caecum and the rectum. The colon was weighted and its length was measured. The whole column was excised, slited longitudinally, and examined under a magnifying lens. Any visible damage was recorded and scored for gross pathology according to Wong [Wong et al., J. Pharm. Exp. Ther. 274: 475-80, 1995]. Namely, a score of 0 indicates no damage, 1 indicates localized hyperemia and/or edema, 2 indicates at least two sites of hyperemia and/or edema, 3 indicates localized erosion, 4 indicates localized ulcer and 5 indicates either an erosion site or ulcer extending for more than 2 cm along the colon or at least two sites of erosion or ulcer. Finally, the entire colon was fixed in 4% formaldehyde for histopathological evaluation.
Each treatment group comprised at least seven animals. The following groups served as negative controls: naïve animals, sham animals that received 70 μl of 50% ethanol without TNBS, and TNBS challenged untreated and vehicle treated animals. A group of animals receiving 10 mg/kg sulfasalazine served as positive controls. Sulfasalazine is a standard anti-inflammatory drug used for the treatment of mild to moderate ulcerative colitis and Crohn's disease, and as adjunctive therapy in the treatment of severe ulcerative colitis. This drug is also used for the treatment of non-IBD related disorders, such as rheumatoid arthritis and ankylosing spondylitis. The recognized side effect of this medicament is its hepatotoxicity upon chronic treatment.

For `CCCCCCC(C)(C)c1cc(OCC(=O)O)c2c(c1)OC1C(O)CCCCC21` (stereo not drawn) [Compound C7S-10, [2-(1,1-dimethylheptyl)-9-hydroxy-5,6,7,8,9,9a-hexahydro-4bH-10-oxa-benzo[α]azulen-4-yloxy]-acetic acid], the “Percent Inhibition of Visceral Pain Writhing Responses” value in assay [1] is listed as 53%. Further, the “Percent Inhibition of Inflammatory Pain Responses, Edema” value in assay [2] (10 mg/kg i.p., 3 hours after carrageenan, reduction in paw swelling) is listed as 41%. The “Percent Inhibition of Inflammatory Pain Responses, ΔForce” value in assay [2] (10 mg/kg i.p., 3 hours, mechanical stimulus) came to 25%. For the same compound, in assay [2] (10 mg/kg i.p., 3 hours, thermal stimulus), the “Percent Inhibition of Inflammatory Pain Responses, ΔLT” value was 61%. For the same compound, in assay [2] (30 mg/kg p.o.), the “inhibition of paw swelling” value is on record as 60%. Further, the “pain response (Δforce)” value in assay [3] (last time point (4.5 hours)) is listed as “totally abrogated the pain response”. The “reduction of pain response (Δforce)” value in assay [3] (one hour after administration) is reported as 70-80%.

Take `CCCCC(C)(C)c1cc(O)c2c(c1)OC1CC(C)(C)CCC21` (stereo not shown) [Compound C6S-6, 3-(1,1-dimethylpentyl)-7,7-dimethyl-5a,6,7,8,9,9a-hexahydro-dibenzofuran-1-ol]: the “Percent inhibition of gene expression, COX-2” value in the assay on COX-2 is “NO (NO indicates that the compound tested did not significantly affect the transcription of the gene assessed and that its activity is comparable to vehicle, within ±20% from this control)”. The “Percent inhibition of gene expression, IL-1β” value in the assay on IL-1β was 37%. Besides, the “Percent inhibition of gene expression, iNOS” value in the assay on iNOS is “NO (NO indicates that the compound tested did not significantly affect the transcription of the gene assessed and that its activity is comparable to vehicle, within ±20% from this control)”. Also, in the assay with MCP-1, the “Percent inhibition of gene expression, MCP-1” value was “NO (NO indicates that the compound tested did not significantly affect the transcription of the gene assessed and that its activity is comparable to vehicle, within ±20% from this control)”. For the same compound, the inhibition in vivo at 2 mg/kg in assay [1] (Mus musculus, iv, read-out: Percent Inhibition of Visceral Pain Writhing Responses) was determined as 38%.

As to `CCCCC(C)(C)c1cc(OCC(=O)O)c2c(c1)OC1CCCCC21` (stereo not shown) [Compound C6S-9, [3-(1,1-Dimethylpentyl)-5a,6,7,8,9,9a-hexahydro-dibenzofuran-1-yloxy]-acetic acid], the inhibition in vivo at 10 mg/kg in assay [2] (10 mg/kg i.p., 3 hours, mechanical stimulus, read-out: Percent Inhibition of Inflammatory Pain Responses, ΔForce) was 14%; in assay [2] (10 mg/kg i.p., 3 hours, thermal stimulus, read-out: Percent Inhibition of Inflammatory Pain Responses, ΔLT), 53%. Moreover, the “transient loss in body weight” value in assay [4] (one day after TNBS instillation) is “behaved as the sulfasalazin treated group”. Also, the mortality in assay [4] (untreated 60%) amounted to 0%.
